Results: publication PMC10041525, “New Dual Inhibitors of Bacterial Topoisomerases with Broad-Spectrum Antibacterial Activity and In Vivo Efficacy against Vancomycin-Intermediate Staphylococcus aureus” (Journal of Medicinal Chemistry, 2023)
Values after ≈ are worked out from the molar mass of the structure shown. Values joined by “and” are separate entries in the source; they are usually repeats but may differ in a detail not shown here. Equal values may be shown once. Read-outs that look alike come from different tables or passages of the source.

Legend:
E. coli ATCC 25922 = assay: IHMA QC MIC; type: cell-based
in vitro = in vitro ADME, mouse; conditions: male
S. pneumoniae (n = 12) = assay: MIC broth microdilution at IHMA Europe; type: cell-based; conditions: for MIC: Streptococcus pneumoniae, read-out: MIC
A. baumannii ATCC 17978 = assay: IHMA QC MIC; type: cell-based; conditions: Acinetobacter baumannii, ATCC17978, read-out: MIC (QC, repeated tests)
Description: (§1) The panel of Hungarian clinical isolates and controls measured following the same method as detailed above, and albeit measurements were carried out in 384-well microtiter plates (Corning Inc.).

E. coli ATCC 35218 = assay: IHMA QC MIC; type: cell-based; conditions: Escherichia coli, ATCC35218, read-out: MIC (QC, repeated tests)
Description: as §1

[1] = tested on: Haemophilus influenzae (n = 14); assay: MIC broth microdilution at IHMA Europe; type: cell-based, H. influenzae; conditions: for MIC: Haemophilus influenzae, read-out: MIC
H. influenzae ATCC 49766 = assay: IHMA QC MIC; type: cell-based
From the text: (§2) Supplement jm2c01905_si_004.xlsx, sheet "QC" | column: MIC [µg/mL]

S. pneumoniae ATCC 49619 = assay: IHMA QC MIC; type: cell-based
From the text: as §2

E. faecalis ATCC 29212 = assay: IHMA QC MIC; type: cell-based
From the text: as §2

H. influenzae ATCC 49247 = assay: IHMA QC MIC; type: cell-based; conditions: Haemophilus influenzae
From the text: as §2

[2] = tested on: N. gonorrhoeae ATCC 49226; assay: IHMA QC MIC; type: cell-based; conditions: Neisseria gonorrhoeae, ATCC49226
From the text: as §2

E. faecium (n = 13) = assay: MIC broth microdilution at IHMA Europe; type: cell-based; conditions: for MIC: Enterococcus faecium, read-out: MIC
P. aeruginosa ATCC 27853 = assay: IHMA QC MIC; type: cell-based; conditions: Pseudomonas aeruginosa
[3] = tested on: Neisseria gonorrhoeae (n = 12); assay: MIC broth microdilution at IHMA Europe; type: cell-based; conditions: for MIC: Neisseria gonorrhoeae, read-out: MIC

## Cc1[nH]c(C(=O)Nc2nc3c(N4CCOCC4)cc(C(=O)O)cc3s2)c(Cl)c1Cl [7a, 2-(3,4-Dichloro-5-methyl-1H-pyrrole-2-carboxamido)-4-morpholinobenzo[d]thiazole-6-carboxylic Acid]
E. coli ATCC 25922; Escherichia coli, ATCC25922
  MIC: 8 µg/mL (≈ 17.6 µM)
E. coli ATCC 25922; Escherichia coli, ATCC25922, read-out: MIC (QC, repeated tests)
  MIC: 8 µg/mL (≈ 17.6 µM)
E. coli ATCC 25922; QC strain E. coli ATCC 25922, test date 2021-11-26
  MIC: 8 µg/mL (≈ 17.6 µM)
In vitro; CD-1, mouse, plasma protein binding assay
  recovery at 4 h, 5 μM: 81.5%
In vitro; CD-1, mouse plasma, 5 µM, 4 h, read-out: fu, fraction unbound
  fraction unbound at 4 h, 5 μM: 0.018
S. pneumoniae (n = 12); MIC […]
  Cumulative % at MIC: 25.0%
S. pneumoniae (n = 12); S. pneumoniae IHMA N° 1775387
  MIC: 0.5 µg/mL (≈ 1.1 µM)
S. pneumoniae (n = 12); S. pneumoniae IHMA N° 1776057
  MIC: 0.5 µg/mL (≈ 1.1 µM)
S. pneumoniae (n = 12); S. pneumoniae IHMA N° 1785617
  MIC: 0.25 µg/mL (≈ 0.549 µM)
S. pneumoniae (n = 12); S. pneumoniae IHMA N° 1800765
  MIC: 0.5 µg/mL (≈ 1.1 µM)
S. pneumoniae (n = 12); S. pneumoniae IHMA N° 1811259
  MIC: 0.06 µg/mL (≈ 0.132 µM)
S. pneumoniae (n = 12); S. pneumoniae IHMA N° 1831562
  MIC: 0.5 µg/mL (≈ 1.1 µM)
S. pneumoniae (n = 12); S. pneumoniae IHMA N° 1902609
  MIC: 0.5 µg/mL (≈ 1.1 µM)
S. pneumoniae (n = 12); S. pneumoniae IHMA N° 1979675
  MIC: 0.5 µg/mL (≈ 1.1 µM)
S. pneumoniae (n = 12); S. pneumoniae IHMA N° 1991963
  MIC: 0.5 µg/mL (≈ 1.1 µM)
S. pneumoniae (n = 12); S. pneumoniae IHMA N° 2057487
  MIC: 0.5 µg/mL (≈ 1.1 µM)
S. pneumoniae (n = 12); S. pneumoniae IHMA N° 2073087
  MIC: 0.5 µg/mL (≈ 1.1 µM)
S. pneumoniae (n = 12); S. pneumoniae IHMA N° 2117109
  MIC: 0.12 µg/mL (≈ 0.264 µM)
S. pneumoniae (n = 12); n = 12
  MIC, all isolates: ≤ 0.5 µg/mL
A. baumannii ATCC 17978
  MIC: 8 µg/mL (≈ 17.6 µM)
E. coli ATCC 35218
  MIC: 4 µg/mL (≈ 8.78 µM)
[1]
  No. of isolates at MIC: 3 and 6 and 4
[1]; H. influenzae IHMA N° 1227715
  MIC: 0.12 µg/mL (≈ 0.264 µM)
[1]; H. influenzae IHMA N° 1241620
  MIC: 0.25 µg/mL (≈ 0.549 µM)
[1]; H. influenzae IHMA N° 1244149
  MIC: 0.5 µg/mL (≈ 1.1 µM)
[1]; H. influenzae IHMA N° 1249803
  MIC: 0.12 µg/mL (≈ 0.264 µM)
[1]; H. influenzae IHMA N° 1254355
  MIC: 0.25 µg/mL (≈ 0.549 µM)
[1]; H. influenzae IHMA N° 1258580
  MIC: 0.5 µg/mL (≈ 1.1 µM)
[1]; H. influenzae IHMA N° 1262734
  MIC: 0.25 µg/mL (≈ 0.549 µM)
[1]; H. influenzae IHMA N° 1272723
  MIC: 0.25 µg/mL (≈ 0.549 µM)
[1]; H. influenzae IHMA N° 1286846
  MIC: 0.5 µg/mL (≈ 1.1 µM)
[1]; H. influenzae IHMA N° 1337530
  MIC: 0.12 µg/mL (≈ 0.264 µM)
[1]; H. influenzae IHMA N° 1440085
  MIC: 0.5 µg/mL (≈ 1.1 µM)
[1]; H. influenzae IHMA N° 1479509
  MIC: 1 µg/mL (≈ 2.2 µM)
[1]; H. influenzae IHMA N° 1952952
  MIC: 0.25 µg/mL (≈ 0.549 µM)
[1]; H. influenzae IHMA N° 2047461
  MIC: 0.25 µg/mL (≈ 0.549 µM)
[1]; MIC 1 µg/mL
  Cumulative % at MIC: 100.0%
  No. of isolates at MIC: 1
[1]; n = 14
  MIC, all isolates: ≤ 1 µg/mL
H. influenzae ATCC 49766; Haemophilus influenzae, ATCC49766
  MIC: 0.25 µg/mL (≈ 0.549 µM)
H. influenzae ATCC 49766; QC strain H. influenzae ATCC 49766, test date 2021-11-26
  MIC: 0.25 µg/mL (≈ 0.549 µM)
S. pneumoniae ATCC 49619; QC strain S. pneumoniae ATCC 49619, test date 2021-11-26
  MIC: 0.25 µg/mL (≈ 0.549 µM)
S. pneumoniae ATCC 49619; Streptococcus pneumoniae, ATCC49619
  MIC: 0.25 µg/mL (≈ 0.549 µM)
E. faecalis ATCC 29212; Enterococcus faecalis, ATCC29212
  MIC: 0.06 µg/mL (≈ 0.132 µM)
E. faecalis ATCC 29212; QC strain E. faecalis ATCC 29212, test date 2021-11-26
  MIC: 0.06 µg/mL (≈ 0.132 µM)
H. influenzae ATCC 49247; ATCC49247, QC strain H. influenzae ATCC 49247, test date 2021-11-11
  MIC: 0.25 µg/mL (≈ 0.549 µM)
H. influenzae ATCC 49247; ATCC49247, QC strain H. influenzae ATCC 49247, test date 2021-11-26
  MIC: 0.06 µg/mL (≈ 0.132 µM)
[2]
  MIC: ≤ 0.03 µg/mL
E. faecium (n = 13)
  Cumulative % at MIC: 61.5% and 100.0%
  No. of isolates at MIC: 8 and 5
E. faecium (n = 13); E. faecium IHMA N° 1764866
  MIC: 0.06 µg/mL (≈ 0.132 µM)
E. faecium (n = 13); E. faecium IHMA N° 1765436
  MIC: 0.06 µg/mL (≈ 0.132 µM)
E. faecium (n = 13); E. faecium IHMA N° 1765746
  MIC: 0.06 µg/mL (≈ 0.132 µM)
E. faecium (n = 13); E. faecium IHMA N° 1893573
  MIC: 0.06 µg/mL (≈ 0.132 µM)
E. faecium (n = 13); E. faecium IHMA N° 1893846
  MIC: 0.12 µg/mL (≈ 0.264 µM)
E. faecium (n = 13); E. faecium IHMA N° 1893942
  MIC: 0.12 µg/mL (≈ 0.264 µM)
E. faecium (n = 13); E. faecium IHMA N° 1894055
  MIC: 0.12 µg/mL (≈ 0.264 µM)
E. faecium (n = 13); E. faecium IHMA N° 1897027
  MIC: 0.12 µg/mL (≈ 0.264 µM)
E. faecium (n = 13); E. faecium IHMA N° 1897101
  MIC: 0.06 µg/mL (≈ 0.132 µM)
E. faecium (n = 13); E. faecium IHMA N° 1904592
  MIC: 0.06 µg/mL (≈ 0.132 µM)
E. faecium (n = 13); E. faecium IHMA N° 2075051
  MIC: 0.12 µg/mL (≈ 0.264 µM)
E. faecium (n = 13); E. faecium IHMA N° 2077718
  MIC: 0.06 µg/mL (≈ 0.132 µM)
E. faecium (n = 13); E. faecium IHMA N° 2083787
  MIC: 0.06 µg/mL (≈ 0.132 µM)
E. faecium (n = 13); n = 13
  MIC, all isolates: ≤ 0.12 µg/mL
P. aeruginosa ATCC 27853; ATCC27853, QC strain P. aeruginosa ATCC 27853, test date 2021-11-11
  MIC: 64 µg/mL (≈ 141 µM)
P. aeruginosa ATCC 27853; ATCC27853, QC strain P. aeruginosa ATCC 27853, test date 2021-11-26
  MIC: 16 µg/mL (≈ 35.1 µM)
[3]
  Cumulative % at MIC: 50.0% and 100.0%
  No. of isolates at MIC: 6
[3]; MIC 0.06 µg/mL
  No. of isolates at MIC: 6
[3]; isolate IHMA 1123853
  MIC: ≤ 0.03 µg/mL
[3]; isolate IHMA 1130935
  MIC: ≤ 0.03 µg/mL
[3]; isolate IHMA 1130989
  MIC: 0.06 µg/mL (≈ 0.132 µM)
[3]; isolate IHMA 1130991
  MIC: 0.06 µg/mL (≈ 0.132 µM)
[3]; isolate IHMA 1137292
  MIC: 0.06 µg/mL (≈ 0.132 µM)
[3]; isolate IHMA 1145734
  MIC: ≤ 0.03 µg/mL
[3]; isolate IHMA 1145735
  MIC: ≤ 0.03 µg/mL
[3]; isolate IHMA 1165897
  MIC: ≤ 0.03 µg/mL
[3]; isolate IHMA 1194748
  MIC: ≤ 0.03 µg/mL
[3]; isolate IHMA 1194750
  MIC: 0.06 µg/mL (≈ 0.132 µM)
[3]; isolate IHMA 1546199
  MIC: 0.06 µg/mL (≈ 0.132 µM)
[3]; isolate IHMA 1546215
  MIC: 0.06 µg/mL (≈ 0.132 µM)
[3]; n = 12
  MIC, all isolates: ≤ 0.06 µg/mL
